The values that follow come from US9630956B2, “Compounds useful as inhibitors of ATR kinase” (Vertex Pharmaceuticals Incorporated, priority 2010, dated 2017).

SMILES strings stand for the structures. pKi: −log10 of the molar value.

The target of one test is full-length ATR (Homo sapiens (Human), UniProt Q13535). Description: ATR Inhibition Assay (radioactive-phosphate incorporation). The test is classed as biochemical.
Chain of full-length ATR (Q13535 whole entry): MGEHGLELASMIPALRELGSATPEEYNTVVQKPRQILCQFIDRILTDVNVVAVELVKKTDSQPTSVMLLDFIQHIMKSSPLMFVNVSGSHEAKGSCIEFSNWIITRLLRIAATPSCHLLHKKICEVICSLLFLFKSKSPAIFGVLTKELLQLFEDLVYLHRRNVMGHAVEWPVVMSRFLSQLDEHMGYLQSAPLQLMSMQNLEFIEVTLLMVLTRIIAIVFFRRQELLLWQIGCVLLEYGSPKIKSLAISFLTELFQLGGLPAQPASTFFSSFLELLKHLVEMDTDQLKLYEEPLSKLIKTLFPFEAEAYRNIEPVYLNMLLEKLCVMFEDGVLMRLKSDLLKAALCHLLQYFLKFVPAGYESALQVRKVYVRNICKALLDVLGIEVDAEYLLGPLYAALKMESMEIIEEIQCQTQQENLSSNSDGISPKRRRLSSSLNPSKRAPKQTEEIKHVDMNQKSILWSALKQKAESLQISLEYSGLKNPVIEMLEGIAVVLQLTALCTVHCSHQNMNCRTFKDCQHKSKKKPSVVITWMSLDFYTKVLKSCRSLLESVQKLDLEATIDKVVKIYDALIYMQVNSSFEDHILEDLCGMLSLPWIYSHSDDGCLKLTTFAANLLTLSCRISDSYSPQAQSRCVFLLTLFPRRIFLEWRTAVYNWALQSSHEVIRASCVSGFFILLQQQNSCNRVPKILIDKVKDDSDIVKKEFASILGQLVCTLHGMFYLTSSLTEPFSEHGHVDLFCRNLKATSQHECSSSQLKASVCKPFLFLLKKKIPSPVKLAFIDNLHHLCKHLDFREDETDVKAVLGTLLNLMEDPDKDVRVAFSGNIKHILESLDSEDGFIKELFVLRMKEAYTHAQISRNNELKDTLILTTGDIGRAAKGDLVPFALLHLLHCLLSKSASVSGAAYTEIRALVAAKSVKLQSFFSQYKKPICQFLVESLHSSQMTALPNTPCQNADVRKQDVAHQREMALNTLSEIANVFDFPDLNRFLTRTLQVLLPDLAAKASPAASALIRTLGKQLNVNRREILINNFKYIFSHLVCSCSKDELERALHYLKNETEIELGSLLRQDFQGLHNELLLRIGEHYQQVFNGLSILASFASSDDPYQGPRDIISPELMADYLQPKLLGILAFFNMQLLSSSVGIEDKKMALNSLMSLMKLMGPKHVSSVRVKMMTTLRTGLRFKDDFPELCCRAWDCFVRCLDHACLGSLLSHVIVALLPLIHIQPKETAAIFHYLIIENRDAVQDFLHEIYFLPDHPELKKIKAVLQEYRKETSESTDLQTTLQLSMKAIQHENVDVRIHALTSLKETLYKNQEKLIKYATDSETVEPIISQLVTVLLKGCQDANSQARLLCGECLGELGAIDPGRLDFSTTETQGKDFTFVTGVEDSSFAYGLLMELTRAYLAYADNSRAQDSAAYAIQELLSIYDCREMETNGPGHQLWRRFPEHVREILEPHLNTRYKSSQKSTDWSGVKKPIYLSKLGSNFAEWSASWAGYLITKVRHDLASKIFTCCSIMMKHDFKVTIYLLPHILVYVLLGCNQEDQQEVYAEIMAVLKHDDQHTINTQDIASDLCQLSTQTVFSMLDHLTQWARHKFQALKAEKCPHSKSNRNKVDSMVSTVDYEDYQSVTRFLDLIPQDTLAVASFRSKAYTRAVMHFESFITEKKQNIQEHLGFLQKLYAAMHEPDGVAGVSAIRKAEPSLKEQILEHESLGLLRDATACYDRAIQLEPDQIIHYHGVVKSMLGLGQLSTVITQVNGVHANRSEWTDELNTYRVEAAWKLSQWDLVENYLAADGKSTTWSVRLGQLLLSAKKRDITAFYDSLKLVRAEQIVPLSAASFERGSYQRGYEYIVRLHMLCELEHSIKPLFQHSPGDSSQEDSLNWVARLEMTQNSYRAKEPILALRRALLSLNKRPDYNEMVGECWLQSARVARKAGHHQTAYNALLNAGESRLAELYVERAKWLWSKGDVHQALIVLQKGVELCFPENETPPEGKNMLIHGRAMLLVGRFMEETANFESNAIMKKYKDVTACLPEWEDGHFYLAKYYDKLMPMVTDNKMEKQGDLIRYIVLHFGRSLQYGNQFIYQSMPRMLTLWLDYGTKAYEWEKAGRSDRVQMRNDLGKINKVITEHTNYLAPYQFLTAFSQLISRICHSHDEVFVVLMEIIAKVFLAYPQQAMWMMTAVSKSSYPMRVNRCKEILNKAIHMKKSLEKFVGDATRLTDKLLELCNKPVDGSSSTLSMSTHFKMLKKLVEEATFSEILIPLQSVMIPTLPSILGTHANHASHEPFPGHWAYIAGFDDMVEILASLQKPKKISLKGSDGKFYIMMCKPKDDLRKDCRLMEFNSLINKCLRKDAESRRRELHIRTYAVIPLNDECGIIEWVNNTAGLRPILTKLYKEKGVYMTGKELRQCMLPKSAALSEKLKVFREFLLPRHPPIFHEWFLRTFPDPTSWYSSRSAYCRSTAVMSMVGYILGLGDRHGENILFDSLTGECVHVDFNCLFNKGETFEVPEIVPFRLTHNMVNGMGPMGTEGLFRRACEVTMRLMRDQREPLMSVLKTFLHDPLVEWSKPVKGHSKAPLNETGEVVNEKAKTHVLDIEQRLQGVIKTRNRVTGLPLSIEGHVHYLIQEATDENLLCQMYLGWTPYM
Conditions: not given
Here is the method:
Compounds were screened for their ability to inhibit ATR kinase using a radioactive-phosphate incorporation assay. Assays were carried out in a mixture of 50 mM Tris/HCl (pH 7.5), 10 mM MgCl2 and 1 mM DTT. Final substrate concentrations were 10 μM [γ-33P]ATP (3 mCi 33P ATP/mmol ATP, Perkin Elmer) and 800 μM target peptide ([…]).
Assays were carried out at 25° C. in the presence of 5 nM full-length ATR. An assay stock buffer solution was prepared containing all of the reagents listed above, with the exception of ATP and the test compound of interest. 13.5 μL of the stock solution was placed in a 96 well plate followed by addition of 2 μL of DMSO stock containing serial dilutions of the test compound (typically starting from a final concentration of 15 μM with 3-fold serial dilutions) in duplicate (final DMSO concentration 7%). The plate was pre-incubated for 10 minutes at 25° C. and the reaction initiated by addition of 15 μL [γ-33P]ATP (final concentration 10 μM).
The reaction was stopped after 24 hours by the addition of 30 μL 0.1 M phosphoric acid containing 2 mM ATP. A multiscreen phosphocellulose filter 96-well plate (Millipore, Cat no. MAPHNOB50) was pretreated with 100 μL 0.2M phosphoric acid prior to the addition of 45 μL of the stopped assay mixture. The plate was washed with 5×200 μL 0.2M phosphoric acid. After drying, 100 μL Optiphase ‘SuperMix’ liquid scintillation cocktail (Perkin Elmer) was added to the well prior to scintillation counting (1450 Microbeta Liquid Scintillation Counter, Wallac).
After removing mean background values for all of the data points, Ki(app) data were calculated from non-linear regression analysis of the initial rate data using the Prism software package (GraphPad Prism version 3.0cx for Macintosh, GraphPad Software, San Diego Calif., USA).
Below is a chart showing the ATR Inhibition Ki values of compounds of the disclosure.
For `CNCc1ccc(-c2nnc(-c3nc(-c4ccc(=O)n(CCOC)c4)cnc3N)o2)cc1` [Compound I-2], the pKi (commonly the Ki on a negative log10 scale, so that one unit is a factor of ten) was 7.30 to 8.30.
Take `CNCc1ccc(-c2nnc(-c3nc(-c4ccc(=O)n(CCO)c4)cnc3N)o2)cc1` [Compound I-4]: the negative-log Ki (pKi) was 7.30 to 8.30.
On the same count and under the same terms, the figure for `CNCc1ccc(-c2nnc(-c3nc(-c4ccc(=O)n(CCCN)c4)cnc3N)o2)cc1` [Compound I-5] is 7.00 to 7.30; for `CNCc1ccc(-c2nnc(-c3nc(-c4ccc(=O)n(C5CCOC5)c4)cnc3N)o2)c(OC)c1` (centres unmarked) [Compound I-8] it is 7.30 to 8.30; for `CNCc1ccc(-c2nnc(-c3nc(-c4ccc(=O)n(C5CCOC5)c4)cnc3N)o2)cc1` (centres unmarked) [Compound I-9] it is 7.30 to 8.30.
The same measure, in the same setting: under `CNCc1ccc(-c2nnc(-c3nc(-c4ccc(=O)n(CCN(C)C)c4)cnc3N)o2)c(C)c1` [Compound I-24, 5-[5-amino-6-[5-[2-methyl-4-(methylaminomethyl)phenyl]-1,3,4-oxadiazol-2-yl]pyrazin-2-yl]-1-(2-dimethylaminoethyl)pyridin-2-one] stands 7.30 to 8.30; under `CNCc1ccc(-c2nnc(-c3nc(-c4ccc(=O)n(C(C)C(=O)O)c4)cnc3N)o2)c(C)c1` (centres unmarked) [Compound I-38, 2-[5-[5-amino-6-[5-[2-methyl-4-(methylaminomethyl)phenyl]-1,3,4-oxadiazol-2-yl]pyrazin-2-yl]-2-oxo-1-pyridyl]propanoic acid], 7.30 to 8.30; under `CNCc1cccc(-c2nnc(-c3nc(-c4ccc(=O)n(C(C)C)c4)cnc3N)o2)c1` [Compound I-47, 5-[5-amino-6-[5-[3-(methylaminomethyl)phenyl]-1,3,4-oxadiazol-2-yl]pyrazin-2-yl]-1-isopropyl-pyridin-2-one], 7.30 to 8.30.
The same measure, in the same setting: the figure for `Nc1ncc(-c2ccc(=O)n(C3CCCC3)c2)nc1-c1cc(-c2ccc(CN3CCCC3)cc2)no1` [Compound I-51] is 7.30 to 8.30; for `CC(C)(CO)NCc1ccc(-c2cc(-c3nc(-c4ccc(=O)n(C5CCCC5)c4)cnc3N)on2)cc1` [Compound I-52] it is 7.30 to 8.30; for `CC(C)n1cc(-c2cnc(N)c(-c3cc(-c4ccc(CNc5ccccc5)cc4)no3)n2)ccc1=O` [Compound I-65] it is 7.00 to 7.30.

The test is the same for the next values; noted with them: ATR Inhibition Ki(app); 10 μM ATP, 800 μM target peptide, 5 nM full-length ATR, 25° C.
`CNCc1ccc(-c2nnc(-c3nc(-c4ccc(=O)n(C)c4)cnc3N)o2)cc1` [Compound I-1]: the negative logarithm of the Ki (pKi) is 7.30 to 8.30.
For `CNCc1ccc(-c2nnc(-c3nc(-c4ccc(=O)n(CC#N)c4)cnc3N)o2)cc1` [Compound I-7], the pKi was 7.30 to 8.30.
Still for that read-out and setting: the figure for `CNCc1ccc(-c2nnc(-c3nc(-c4ccc(=O)n(C(C)C)c4)cnc3N)o2)c(F)c1` [Compound I-10] is no less than 8.30; for `CNCc1ccc(-c2nnc(-c3nc(-c4ccc(=O)n(C(C)C)c4)cnc3N)o2)c(C)c1` [Compound I-12] it is no less than 8.30; for `Cc1cc(CN[C@H]2CCOC2)ccc1-c1nnc(-c2nc(-c3ccc(=O)n(C(C)C)c3)cnc2N)o1` [Compound I-13, 5-[5-amino-6-[5-[2-methyl-4-[[[(3S)-tetrahydrofuran-3-yl]amino]methyl]phenyl]-1,3,4-oxadiazol-2-yl]pyrazin-2-yl]-1-isopropyl-pyridin-2-one] it is no less than 8.30.
Still for that read-out and setting: the figure for `CNCc1ccc(-c2nnc(-c3nc(-c4ccc(=O)n(C5CCCC5)c4)cnc3N)o2)c(C)c1` [Compound I-14] is no less than 8.30; for `CNCc1ccc(-c2nnc(-c3nc(-c4ccc(=O)n(C(C)C#N)c4)cnc3N)o2)c(C)c1` (centres unmarked) [Compound I-16] it is no less than 8.30; for `CNCc1ccc(-c2nnc(-c3nc(-c4ccc(=O)n(C(C)COC)c4)cnc3N)o2)c(C)c1` (centres unmarked) [Compound I-17] it is no less than 8.30.
Same read-out and setting: the figure for `CNCc1ccc(-c2nnc(-c3nc(-c4ccc(=O)n(C(C)C5CC5)c4)cnc3N)o2)c(C)c1` (centres unmarked) [Compound I-18] is no less than 8.30; for `CCn1cc(-c2cnc(N)c(-c3nnc(-c4ccc(CNC)cc4OC)o3)n2)ccc1=O` [Compound I-19] it is no less than 8.30.
Take `Cc1cc(CNC(C)C)ccc1-c1nnc(-c2nc(-c3ccc(=O)n(C(C)C)c3)cnc2N)o1` [Compound I-20]: the negative logarithm of the Ki (pKi) is no less than 8.30.
Still for that read-out and setting: under `Cc1cc(CNC(C)(C)C)ccc1-c1nnc(-c2nc(-c3ccc(=O)n(C(C)C)c3)cnc2N)o1` [Compound I-21] stands no less than 8.30; under `CC(C)n1cc(-c2cnc(N)c(-c3cc(-c4ccc(CN[C@H]5CCOC5)cc4)no3)n2)ccc1=O` [Compound I-23], no less than 8.30.
As to `CCC(C)n1cc(-c2cnc(N)c(-c3nnc(-c4ccc(CNC)cc4OC)o3)n2)ccc1=O` (centres unmarked) [Compound I-25], the pKi is no less than 8.30.
With `CNCc1ccc(-c2nnc(-c3nc(-c4ccc(=O)n(CC(C)C)c4)cnc3N)o2)c(OC)c1` [Compound I-26], the pKi is no less than 8.30.
Same read-out and setting: under `CNCc1ccc(-c2nnc(-c3nc(-c4ccc(=O)n(CC(F)(F)F)c4)cnc3N)o2)c(C)c1` [Compound I-27] stands no less than 8.30; under `CNCc1ccc(-c2nnc(-c3nc(-c4ccc(=O)n(CC(F)(F)F)c4)cnc3N)o2)c(OC)c1` [Compound I-28], no less than 8.30; under `CNCc1ccc(-c2cc(-c3nc(-c4ccc(=O)n(C(C)C)c4)cnc3N)on2)c(F)c1` [Compound I-29], no less than 8.30.
The same measure, in the same setting: the figure for `CC#CC(C)n1cc(-c2cnc(N)c(-c3nnc(-c4ccc(CNC)cc4C)o3)n2)ccc1=O` (centres unmarked) [Compound I-30] is no less than 8.30; for `CNCc1ccc(-c2nnc(-c3nc(-c4ccc(=O)n(C(C)CF)c4)cnc3N)o2)c(C)c1` (centres unmarked) [Compound I-31] it is 7.30 to 8.30.
On to `CNCc1ccc(-c2nnc(-c3nc(-c4ccc(=O)n(C5CCC5)c4)cnc3N)o2)c(C)c1` [Compound I-33], for which the negative logarithm of the Ki (pKi) is no less than 8.30.
Take `CNCc1ccc(-c2nnc(-c3nc(-c4ccc(=O)n(C(C)C#N)c4)cnc3N)o2)c(OC)c1` (centres unmarked) [Compound I-34, 2-[5-[5-amino-6-[5-[2-methoxy-4-(methylaminomethyl)phenyl]-1,3,4-oxadiazol-2-yl]pyrazin-2-yl]-2-oxo-1-pyridyl]propanenitrile]: the negative logarithm of the Ki (pKi) was no less than 8.30.
Same read-out and setting: the figure for `COc1cc(CNC(C)(C)C)ccc1-c1nnc(-c2nc(-c3ccc(=O)n(C(C)C)c3)cnc2N)o1` [Compound I-35] is no less than 8.30; for `CNCc1ccc(-c2nnc(-c3nc(-c4ccc(=O)n(C(C)CO)c4)cnc3N)o2)c(OC)c1` (centres unmarked) [Compound I-36] it is no less than 8.30.
The same measure, in the same setting: the figure for `CC(C)n1cc(-c2cnc(N)c(-c3nnc(-c4ccc(CNC(C)(C)C)cc4C#N)o3)n2)ccc1=O` [Compound I-40] is 7.30 to 8.30; for `CNCc1ccc(-c2nnc(-c3nc(-c4ccc(=O)n(C(C)C(F)(F)F)c4)cnc3N)o2)c(OC)c1` (centres unmarked) [Compound I-41] it is no less than 8.30.
Take `CC(N)c1ccc(-c2nnc(-c3nc(-c4ccc(=O)n(C(C)C)c4)cnc3N)o2)cc1` (centres unmarked) [Compound I-45]: the pKi is 7.30 to 8.30.
On the same count and under the same terms, under `CC(C)n1cc(-c2cnc(N)c(-c3nnc(-c4cccc(CNC(C)(C)C)c4)o3)n2)ccc1=O` [Compound I-46] stands 7.00 to 7.30; under `CNCc1ccc(-c2cc(-c3nc(-c4ccc(=O)n(C5CCCC5)c4)cnc3N)on2)c(F)c1` [Compound I-56], no less than 8.30.
On the same count and under the same terms, under `CC(C)n1cc(-c2cnc(N)c(-c3cc(-c4ccc(C(N)CF)cc4)no3)n2)ccc1=O` (centres unmarked) [Compound I-59] stands 7.30 to 8.30.
Still for that read-out and setting: under `CNCc1ccc(-c2cc(-c3nc(-c4ccc(=O)n(C5CCOCC5)c4)cnc3N)on2)cc1` [Compound I-66] stands no less than 8.30; under `C=Cc1cc(-c2cnc(N)c(-c3cc(-c4ccc(CNC)cc4)no3)n2)cn(C(C)C)c1=O` [Compound I-67], 7.00 to 7.30; under `CNCc1ccc(-c2cc(-c3nc(-c4ccc(=O)n(Cc5ccoc5)c4)cnc3N)on2)cc1` [Compound I-69], no less than 8.30.
For the molecule `CNCc1ccc(-c2cc(-c3nc(-c4ccc(=O)n(CCN5CCCC5=O)c4)cnc3N)on2)cc1` [Compound I-70], the pKi is no less than 8.30.
On the same count and under the same terms, the figure for `CNCc1ccc(-c2cc(-c3nc(-c4cc(Br)c(=O)n(C(C)C)c4)cnc3N)on2)cc1` [Compound I-71] is 7.30 to 8.30.
`CCc1cc(-c2cnc(N)c(-c3cc(-c4ccc(CNC)cc4)no3)n2)cn(C(C)C)c1=O` [Compound I-75]: the negative-log Ki (pKi) is 7.00 to 7.30.
Same read-out and setting: the figure for `CNCc1ccc(-c2cc(-c3nc(-c4ccc(=O)[nH]c4)cnc3N)on2)cc1` [Compound I-76] is 7.30 to 8.30; for `CNCc1ccc(-c2cc(-c3nc(-c4ccc(=O)n(C(C)C5CC5)c4)cnc3N)on2)cc1` (centres unmarked) [Compound I-79] it is no less than 8.30; for `CNCc1ccc(-c2cc(-c3nc(-c4ccc(=O)n(Cc5nccs5)c4)cnc3N)on2)cc1` [Compound I-84] it is no less than 8.30.
Still for that read-out and setting: the figure for `CNCc1ccc(-c2cc(-c3nc(-c4ccc(=O)n(Cc5nccn5C)c4)cnc3N)on2)cc1` [Compound I-85] is no less than 8.30.
Still for that read-out and setting: the figure for `CNCc1ccc(-c2cc(-c3nc(-c4ccc(=O)n(CC5CCCO5)c4)cnc3N)on2)cc1` (centres unmarked) [Compound I-86] is no less than 8.30; for `CNCc1ccc(-c2cc(-c3nc(-c4c[nH]c(=O)c(CO)c4)cnc3N)on2)cc1` [Compound I-88] it is no less than 8.30.
